Data on one compound can be found in patent US11865125B2, “APKC inhibitors and methods of treating a neurodegenerative disease or disorder” (UNIVERSITY OF SOUTH FLORIDA, priority 2016, dated 2024).

“Also recorded” adds a separate entry of the source.

Data set [1] relates to β-secretase (BACE1). Description: β-secretase activity (BACE1) in LA1-5s neuroblastoma cells. The data set is classed as cell-based, human. To be noted: LA1-5s cells. The method, then:
Relative bar values in panel a are mean±SEM of 6 determinations. Asterisks: *, P<0.05; **, P<0.01; ***, P<0.001 (ANOVA). Values in panel b are means of 2-4 determinations.
Shown here are Mean±SEM (N=4) values relative to the mean initial basal or insulin-stimulated level of indicated immunoreactive protein/peptide. Asterisks: *, P<0.05; **, P<0.01; ***, P<0.001 (ANOVA).
β-Secretase Activity (BACE1; beta-site APP-cleaving enzyme-1). β-Secretase was measured was measured using a kit from Thermo-Fisher.

The target in data set [2] is T1, aPKC (Mus musculus, UniProt Q62074).
T1 construct: previously seen in isolated human hepatocytes, mouse adipocytes and recombinant PKC-λ/ι [8,16]; endogenous in cells; host or cells: isolated mouse adipocytes
T1 sequence (Q62074 2-595 limits assumed): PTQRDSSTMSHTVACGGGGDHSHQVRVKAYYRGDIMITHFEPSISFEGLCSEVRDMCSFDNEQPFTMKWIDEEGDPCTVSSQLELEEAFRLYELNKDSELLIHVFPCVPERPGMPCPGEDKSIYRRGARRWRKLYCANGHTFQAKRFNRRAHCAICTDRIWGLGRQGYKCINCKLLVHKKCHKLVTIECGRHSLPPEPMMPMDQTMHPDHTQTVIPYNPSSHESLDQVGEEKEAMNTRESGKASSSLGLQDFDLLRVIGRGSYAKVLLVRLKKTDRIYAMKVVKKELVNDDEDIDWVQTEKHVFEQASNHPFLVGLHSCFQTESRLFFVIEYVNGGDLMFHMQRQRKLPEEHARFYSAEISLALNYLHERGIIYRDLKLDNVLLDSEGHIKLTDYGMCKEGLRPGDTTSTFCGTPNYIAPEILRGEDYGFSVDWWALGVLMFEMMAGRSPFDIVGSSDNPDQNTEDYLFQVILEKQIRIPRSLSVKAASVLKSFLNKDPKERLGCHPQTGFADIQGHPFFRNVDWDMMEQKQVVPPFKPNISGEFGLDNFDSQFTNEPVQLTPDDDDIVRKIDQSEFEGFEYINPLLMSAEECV
To be noted: previously seen, stated as similar; read-out: IC50, inhibition of aPKC activity in mouse adipocytes; cited from earlier work.

Data set [3] has as its system Aβ1-40/42. As to the kind of experiment: brain Aβ1-40/42 peptide levels in mice. The data set is classed as in vivo, mouse. The source says:
Mouse Studies. Brain samples were obtained from normal and insulin-resistant mice and monkeys used previously, and includes mice originally used in studies of insulin signaling and resistance in liver: (a) 4-6 month old C57Bl/6 mice used in studies of high-fat-feeding [USF Vivarium] [6]; 4-6 month-old male C57Bl/6 ob/ob and lean ob+ mice (Jackson Labs, Bar Harbor, Maine); and (c) 10-12 month-old C57Bl/6 Het-MλKO mice [USF Vivarium] [8]. […] Where indicated normal mice were given a single SC injection of saline or saline containing 1.5 mg/kg ICAPP to follow time-related alterations in brain signaling factors. Where indicated, mice were treated intraperitoneally (IP) with insulin (1 U/kg body weight) or vehicle 15-min before euthanization by administration of Xylazine/Ketamine, followed by whole body perfusion with phosphate-buffered saline and rapid removal of brain and other tissues.
Tissue Preparations. As described, mouse brains were hemisected sagittally, and one-half was frozen in liquid N2, stored at −80° C., and samples thereof were homogenized in buffer containing 0.25M sucrose, 20 mM Tris/HCl (pH, 7.5), 2 mmol/l EGTA, 2 mM EDTA, 1 mM phenlysulfonoylfluoride (PMSF), 20 μg/ml leupeptin, 10 μg/ml aprotinin, 2 mM Na4P2O7, 2 mM Na3VO4, 2 mM NaF, and 1 μM microcystin, and then supplemented with 1% TritonX-100, 0.6% Nonidet and 150 mM NaCl.
Western Analyses. As described, Western analyses were conducted with rabbit antisera or mouse monoclonal antibodies (mMab), using: anti-aPKC (Santa Cruz Biotechnologies, Santa Cruz, CA); anti-phospho-threonine-560/555-PKC-ζ/λ/ι (Invitrogen, Carlsbad, CA); anti-p-serine-256-FoxO1 and anti-FoxO1 (Abnova, Walnut, CA); anti-Akt (mMab), anti-phospho-serine-473-Akt, anti-phospho-serine-9-GSK3P anti-GSK313, anti-phospho-serine-253-FoxO3a, anti-FoxO3a, anti-phospho-serine-256-FoxO1, anti-phospho-serine-193-FoxO4; anti-FoxO1, anti-phospho-serine-2448-mTOR, anti-mTOR, anti-β-amyloid (anti-5-10 kDa-Aβ1-40/42) and anti-amyloid precursor protein (anti-120 kDa-APP) (Cell Signaling Technologies, Danvers, MA); and anti-phospho-serine-202-tau, anti-phospho-threonine-231-tau (Gene Tex, Irvine, CA). Samples from experimental groups were compared on the same blots, and routinely checked with loading controls. Note that: insulin-sensitive 70 kDa aPKC is largely PKC-ζ in mouse brain and orthologous PKC-ι (98% aa homology) in monkey and other primate brains; brain PKC-ζ exists largely as a 50 kDa moiety that, lacking a regulatory domain, is constitutively-active and unresponsive to insulin.
Where indicated, mice were randomly treated with insulin (1 unit/kg/bw i.p.) 15 min before being euthanized by administration of xylazine/ketamine, followed by whole-body perfusion with PBS and rapid removal of brain and other tissues.

A short description of data set [4]: passage of the blood brain barrier. It counts as in vivo, mouse. To be noted: intact mice, inferred from inhibition of brain PKC-λ/ι.

Consider `NC(=O)c1ncn([C@@H]2C[C@H](COP(=O)(O)O)[C@@H](O)[C@H]2O)c1N` [ICAPP], for which, in data set [1], the “effect on metformin-induced increase in β-secretase activity” value was “dose-dependently inhibited”. For the same compound, the “effect on insulin-stimulated β-secretase activity” value in data set [1] (200 nM insulin) is listed as “dose-dependent decreases”. Moreover, the IC50 (in general, the concentration needed to halve the response being measured) in data set [2] was 1 to 10 nM. Moreover, the “resting/basal brain Aβ1-40/42 peptide levels” value in data set [3] (Het-MλKO mice, s.c. once daily for 8 days (ICAPP 0.4 mg/kg, ATM 60 mg/kg)) is listed as “returned to normal”. The “acute insulin-induced increase in brain Aβ1-40/42 levels” value in data set [3] (Het-MλKO mice, s.c. once daily for 8 days (ICAPP 0.4 mg/kg, ATM 60 mg/kg), insulin 1 U/kg i.p. 15 min) is given as “comparable loss in the ability of insulin to acutely increase Aβ1-40/42 levels; also recorded: abrogated”. Further, the “insulin-dependent brain Aβ1-40/42 peptide levels” value in data set [3] (normal mice, single s.c. dose of ICAPP 1.5 mg/kg, insulin 1 U/kg i.p. 15 min before killing) was “time-related, well-correlated decreases; also recorded: blocked acute effects of insulin”. Moreover, in data set [4], the “passage of the blood brain barrier (BBB)” value is reported as “can cross the BBB”.
